Test results from US12662676B2, “Aptamer nucleic acid molecule, and complex and application thereof” (EAST CHINA UNIVERSITY OF SCIENCE AND TECHNOLOGY, priority 2019, dated 2026).

Test: Pepper-based GTP sensor
Format: biochemical
Conditions: with III-3, presence vs absence of GTP; linkage 3
Procedure: In order to construct Pepper-based sensors for detecting analytes, the nucleotides in the stem-loop region in the Pepper-1 (SEQ ID No: 2) structure were replaced with the aptamers that can specifically recognize and bind adenosine and guanosine (GTP), respectively. The aptamers Pepper-1 were fused by linkage with different lengths and different nucleotides (FIG. 10A). The RNA sensors were prepared according to the commonly used experimental method (1). The RNA sensors were incubated with III-3 fluorophore, and the fluorescence was measured in the presence or absence of adenosine or GTP using a multifunctional microplate reader.

Question: For “GTP sensor: Pepper-1 with stem-loop replaced by GTP aptamer, linkage 3, SEQ ID No:22 (UCCCCAAUCGUGGCGUGUCGUAAGAAGAGCACGUAUACGCAAUAACUGGCGCCGGGA; listed as RNA, chemistry not given here)”, which “activation fold of GTP sensor” value is on record?
Answer: The value was 10 folds.
